Data reported in patent publication US6472157B2, “Methods for detection of promoter polymorphism in a UGT gene promoter” (Arch Development Corporation, priority 1999, dated 2002).
Entries after “also recorded” stand apart in the source; their conditions may differ.

Assays:
UGT [1] = test: PNP glucuronidation in human liver microsomes; type: in vitro ADME; details: PNP 360 μM, 10 minutes
Protocol: The formation of glucuronidated PNP was quantified by the following method. […] The reaction was stopped by the addition of 2.8 ml of 0.2 M glycine-NaOH buffer (pH 10.4). Samples were centrifuged at 2,500 rpm for 30 minutes, and UGT activity in the supernatant was analyzed colorimetrically in a spectrophotometer by measuring the disappearance of the substrate at a wavelength of 400 nm.

[2] = relative to Irinotecan; cited from earlier work
UGT enzymes [3] = test: SN-38 glucuronidation assay in Gunn rat liver microsomes; type: in vitro ADME; details: liver microsomes from Gunn rats
Protocol: (§1) To investigate which UGT enzymes are responsible for SN-38 glucuronidation, the in vitro metabolism of SN-38 was measured using normal human and rat liver microsomes, as well as microsomes from Gunn rats, Gunn, C. H., J. Hered., 29:137-139 (1938), and patients with Crigler-Najjar type I (CN-1) syndrome. Liver microsomes were prepared from normal humans, CN-1 patients, normal rats, and Gunn rats and assayed for SN-38 glucuronidation. Microsomes from human liver samples medically unsuitable for liver transplantation were acquired under the auspices of the Washington Regional Transplant Consortium. In addition, microsomes were prepared by differential centrifugation methods. Purba, H. S., et al., Br. J. Clin. Pharmaocol. 23:447-453, using human liver samples obtained with the approval of the Institutional Review Boards of institutions involved through the Liver Tissue Procurement and Distribution System. Investigations were performed with pooled microsomes from normal rats, normal humans and Gunn rats, while microsomes from CN-1 patients were used individually.
Microsomes (1 mg/ml) were incubated with SN-38 (5 μM), MgCl2 (10 mM), and UDPGA (5 mM) in a 0.1 M Tris-HCl buffer medium (pH 7.4) for 30 minutes at 37° C., in a final volume of 200 μl. […] A C18μ Bondapak column (10 μm, 3.9×300 mm) was used with fluorescence detection at the following wavelengths: 355 nm and 515 nm. […]

human UGT1A4 = molecular target: T1, human UGT1A4 (Homo sapiens, UniProt P22310); test: SN-38 glucuronidation by cDNA-expressed UGT1A4 in HK293 cells; details: HK293 cells expressing UGT1A4; up to a protein concentration of 2 mg/ml
T1 sequence (P22310 29-534): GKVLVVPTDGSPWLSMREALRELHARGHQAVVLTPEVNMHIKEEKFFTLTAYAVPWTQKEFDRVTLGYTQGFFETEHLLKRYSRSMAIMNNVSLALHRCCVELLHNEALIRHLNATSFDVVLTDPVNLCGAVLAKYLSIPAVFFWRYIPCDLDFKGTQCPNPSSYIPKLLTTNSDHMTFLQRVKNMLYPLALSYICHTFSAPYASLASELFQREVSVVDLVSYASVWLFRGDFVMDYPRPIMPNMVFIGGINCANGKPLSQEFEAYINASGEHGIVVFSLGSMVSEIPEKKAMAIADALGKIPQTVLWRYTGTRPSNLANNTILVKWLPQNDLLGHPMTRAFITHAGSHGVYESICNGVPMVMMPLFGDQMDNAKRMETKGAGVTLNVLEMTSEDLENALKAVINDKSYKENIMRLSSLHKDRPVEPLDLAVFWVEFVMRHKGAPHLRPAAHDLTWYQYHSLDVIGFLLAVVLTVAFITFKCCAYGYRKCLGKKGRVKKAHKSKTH
Excerpt: (§2) Cell lysates from HK293 cells expressing UGT1A1 (♦), UGT1A4 (□) and UGT2B7 enzymes (Δ), and membrane preparations of HK293 cells expressing UGT1A1 enzyme (●), were screened for SN-38 glucuronidating activity. HK293 cells (⋄) were used as a control. Each data point represents the mean of three separate determinations.
(§3) To determine which particular isozyme of UGT1 glucuronidates SN-38, HK293 cells transfected with and expressing cDNA encoding selected UGT1 isozymes and a member of the UGT2 family (UGT2B7) were screened for SN-38 glucuronidating activity. Culture media and conditions for stable expression of human UGT1A1, UGT1A4, and UGT2B7 have been described previously. Coffman, et al., Mol. Pharmacol., 47:1101-1105 (1995), Green, et al., Drug Metab. Dispos., 23:299-302 (1995); Coffman, et al., Drug Metab. Dispos., 25:1-4 (1997) all are incorporated herein by reference. Briefly, the XbaI/XhoI and BamHI-XhoI fragments of human UGT1A1, UGT1A4, and UGT2B7 were subcloned into the respective corresponding sites of the mammalian expression vectors pcDNA3, pREP9, and pcDNA3.1. HK293 cells were transfected with the vector-UGT isozyme using the calcium phosphate transfection method. Chen, et al., Biotechniques, 6:632-638 (1988). The cells were then assayed for glucuronidation activity as described above.

UGT enzymes [4] = test: SN-38 glucuronidation assay in human liver microsomes; type: in vitro ADME; details: for mean SN-38 glucuronidation rate (peak area of SN-38 glucuronide ÷ peak area CPT) {SE}: African Americans liver microsomes
Protocol: as §1
Microsomes (1 mg/ml) were incubated with SN-38 (5 μM), MgCl2 (10 mM), and UDPGA (5 mM) in a 0.1 M Tris-HCl buffer medium (pH 7.4) for 30 minutes at 37° C., in a final volume of 200 μl. After stopping the reaction with 400 μl methanol, the incubation mix was centrifuged at 2,500 rpm for 30 minutes at 4° C. The supernatant was evaporated to dryness under nitrogen and in preparation of analysis by high pressure liquid chromatography (HPLC), the supernatant was reconstituted with 250 μl of a mobile phase consisting of 35% acetonitrile and 65% 0.1 M KH2PO4 containing 3 mM sodium heptane sulphonate (pH 4.0), used at a flow rate of 0.8 ml/min. A C18μ Bondapak column (10 μm, 3.9×300 mm) was used with fluorescence detection at the following wavelengths: 355 nm and 515 nm. 100 μl aliquots of the reconstituted supernatant were injected into an HPLC assay system. CPT was used as the internal standard. […] Retention times were approximately 3.5, 9, and 10 minutes, respectively. The peaks for each of these compounds were confirmed using standards of SN-38G, SN-38, and CPT.
Microsomes (1 mg/ml) were obtained from human liver tissue samples and were incubated with SN-38 (5 μM), MgCl2 (10 mM), and UDPGA (5 mM) in a 0.1 M Tris-HCl buffer medium (pH 7.4) for 30 minutes at 37° C., in a final volume of 200 μl. SN-38, SN-38G and the internal standard, CPT, were separated using high performance liquid chromatography (HPLC) coupled to fluorescence detection (ex=355 nm and em=515 nm). SN-38 reaction rates were linear for incubation times up to at least 1.5 hours and for final protein concentrations of up to 2 mg/ml. The results of this analysis, shown in Table 2 below, also include the liver samples of Caucasian origin from the first study. […]

human UGT1A1 = molecular target: T2, human UGT1A1 (Homo sapiens, UniProt P22309); test: SN-38 glucuronidation by cDNA-expressed UGT1A1 in HK293 cells; details: HK293 cells expressing UGT1A1; increased with increasing protein concentrations
T2 sequence (P22309 26-533): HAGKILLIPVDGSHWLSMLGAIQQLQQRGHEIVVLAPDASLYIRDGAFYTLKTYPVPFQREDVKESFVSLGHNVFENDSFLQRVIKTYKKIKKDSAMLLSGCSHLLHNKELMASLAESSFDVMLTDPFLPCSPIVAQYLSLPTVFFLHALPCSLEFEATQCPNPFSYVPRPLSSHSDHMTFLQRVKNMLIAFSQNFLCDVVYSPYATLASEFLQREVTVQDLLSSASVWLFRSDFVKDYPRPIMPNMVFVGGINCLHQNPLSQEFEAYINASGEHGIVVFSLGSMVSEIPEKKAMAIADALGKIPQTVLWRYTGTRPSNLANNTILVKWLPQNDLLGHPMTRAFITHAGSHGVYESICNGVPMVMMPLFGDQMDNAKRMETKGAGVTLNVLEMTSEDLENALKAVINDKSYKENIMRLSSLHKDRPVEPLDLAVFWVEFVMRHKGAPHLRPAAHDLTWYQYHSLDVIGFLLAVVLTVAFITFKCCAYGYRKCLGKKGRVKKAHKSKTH
Excerpt: as §2, §3

human UGT2B7 = molecular target: T3, human UGT2B7 (Homo sapiens, UniProt P16662); test: SN-38 glucuronidation by cDNA-expressed UGT2B7 in HK293 cells; details: HK293 cells expressing UGT2B7; up to a protein concentration of 2 mg/ml
T3 sequence (P16662 24-529): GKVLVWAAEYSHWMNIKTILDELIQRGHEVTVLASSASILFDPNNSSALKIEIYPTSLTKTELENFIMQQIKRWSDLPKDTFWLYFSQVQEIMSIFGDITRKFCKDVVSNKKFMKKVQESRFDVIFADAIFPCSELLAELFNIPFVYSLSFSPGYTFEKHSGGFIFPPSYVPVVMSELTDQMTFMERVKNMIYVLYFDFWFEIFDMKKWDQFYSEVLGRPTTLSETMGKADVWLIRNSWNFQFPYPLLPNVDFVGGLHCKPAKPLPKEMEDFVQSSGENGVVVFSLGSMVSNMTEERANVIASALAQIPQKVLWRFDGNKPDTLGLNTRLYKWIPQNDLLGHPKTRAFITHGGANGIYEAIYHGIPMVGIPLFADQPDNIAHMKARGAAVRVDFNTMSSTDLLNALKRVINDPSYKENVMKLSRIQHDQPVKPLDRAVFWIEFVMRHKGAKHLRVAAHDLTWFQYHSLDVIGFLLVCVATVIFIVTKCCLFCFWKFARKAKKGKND
Excerpt: as §2, §3

UGT [5] = test: AZT glucuronidation assay in human liver microsomes (control); type: in vitro ADME; details: microsomes from normal humans and CN-1 patients; AZT 5 mM, 1 hour
Protocol: (§4) To ensure the viability and functional enzymatic activity of the microsomal preparations, the UGT activity toward another substrate, AZT (3′-azido-3′-deoxythymidine) was investigated as a control. Liver microsomes from normal humans, CN-1 patients, normal rats, and Gunn rats were prepared as described above. Investigations were performed in pooled microsomes from normal rats, normal humans and Gunn rats, while microsomes from CN-1 patients were used individually.
(§5) Microsomes were preincubated with oleolyl lysophosphatidylcholine (OLPC) (0.8% wt/wt. OLPC/microsomal protein) at 4° C. for 20 minutes. The final reaction mixture contained 1 mg/ml preincubated microsomes, AZT (5 mM), MgCl2 (10 mM), 0.2 M Tris-HCl buffer (pH 7.3), and UDPGA (10 mM) in a final volume of 300 μl. After an incubation period of 1 hour at 37° C., the reaction was stopped with the addition of 30 μl of HCl. Proteins were removed after centrifugation at 10,500 g for 5 minutes and 30 μl aliquots of the supernatant were subjected to HPLC analysis and the metabolites were detected in an ultraviolet detector at a wavelength of 265 nm. The mobile phase consisted of a 15:85 mixture of acetonitrile/ammonium phosphate buffer (0.1% vol/vol phosphoric acid, adjusted to pH 2.7 with ammonium hydroxide) used at a flow rate of 1 ml/min. […]

UGT [6] = test: AZT glucuronidation assay in rat liver microsomes (control); type: in vitro ADME; details: microsomes from normal rats and Gunn rats; AZT 5 mM, 1 hour
Protocol: as §4, §5

cytochrome P450 enzymes = test: 7-ethoxycoumarin O-deethylation in human liver samples; type: in vitro ADME; details: liver samples used in the genotype study
Excerpt: To evaluate the functional viability of microsomal drug-metabolizing enzymes in the liver samples used in this study, the livers were screened for 7-ethoxycoumarin O-deethylation, as 7-ethoxycoumarin is oxidized to umbelliferone by multiple cytochrome P450 enzymes. The method used is described by Evans & Relling, J. Chromatogr., 578:141-145 (1992).

Question: Which “rates of PNP glucuronidation (mean±SEM)” value (UGT [1]) does the source give for `O=[N+]([O-])c1ccc(O)cc1` [PNP] here?
Answer: Its value is 20.39±2.4 nmol PNP glucuronidated/min/mg protein.

Question: And the “rates of PNP glucuronidation (range)” value (UGT [1])?
Answer: Its value is 16.48-23.82 nmol PNP glucuronidated/min/mg protein.

Question: What does the source list for `CCc1c2c(nc3ccc(O)cc13)-c1cc3c(c(=O)n1C2)COC(=O)[C@]3(O)CC` [SN-38, 7-ethyl-10-hydroxycamptothecin]?
Answer: higher antitumor activity than Irinotecan [2]: 100-1,000 fold; in vitro SN-38 glucuronidating activity (UGT enzymes [3]): no in vitro glucuronidation; also recorded: lack SN-38 glucuronidating activity; SN-38 glucuronidating activity (human UGT1A4): lack of SN-38 glucuronidating activity; rates of SN-38G formation among individuals (range) (UGT enzymes [4]; 25 normal human liver microsomes, SN-38 5 μM, 30 minutes, 37° C.): 0.5-26 pmol of SN-38G formed/min/mg microsomal protein; mean SN-38 glucuronidation rate (peak area of SN-38 glucuronide ÷ peak area CPT) {SE} (UGT enzymes [4]; UGT1A1 promoter genotype 5/7): 0.39; mean SN-38 glucuronidation rate (peak area of SN-38 glucuronide ÷ peak area CPT) {SE} (UGT enzymes [4]; UGT1A1 promoter genotype 6/8): 0.12; in vitro SN-38 glucuronidating activity (UGT enzymes [4]; liver microsomes from CN-1 patients): no in vitro glucuronidation; also recorded: lack SN-38 glucuronidating activity; SN-38G formation (human UGT1A1): measurable SN-38G formation; SN-38 glucuronidating activity (human UGT2B7): lack of SN-38 glucuronidating activity

Question: Which “in vitro formation of G-AZT” value (UGT [5]) does the source give for `Cc1cn([C@H]2C[C@H](N=[N+]=[N-])[C@@H](CO)O2)c(=O)[nH]c1=O` [AZT, 3′-azido-3′-deoxythymidine] here?
Answer: The value was “Intact in vitro formation of G-AZT”.

Question: What about the “in vitro formation of G-AZT” value (UGT [6]) of the same compound?
Answer: Its value is “Intact in vitro formation of G-AZT”.

Question: For `CCOc1ccc2ccc(=O)oc2c1` [7-ethoxycoumarin], which “rates of umbelliferone formation (7-ethoxycoumarin O-deethylation)” value (cytochrome P450 enzymes) is on record?
Answer: Its value is “within the expected range”.
